According to US10538520B2, “Benzamide and nicotinamide compounds and methods of using same” (OncoTartis Inc., priority 2013, dated 2020):

Columns and labels:
MV4-11 = assay: Cytotoxicity towards MV4-11 cell line; format: cell-based; conditions: Homo sapiens
Procedure: (§1) In various embodiments, the compounds of the disclosure are those in which show IC50 values in cytotoxicity experiments towards cells lines MV4-11 and U937 of >20 μM, 10-20 μM, 5-10 μM, 1-5 μM, or <1 μM.
(§2) The IC50 is divided into 5 categories: A<1 μM, B 1-5 μM, C 5-10 μM, D 10-20 μM, and E>20 μM.

U-937 = assay: Cytotoxicity towards U-937 cell line; format: cell-based; conditions: Homo sapiens
Procedure: as §1, §2

Row | SMILES | IC50 (MV4-11) [nM] | IC50 (U-937) [nM]
1 | O=C(NCCCn1ccnc1)c1ccc(-n2cccn2)c(C#Cc2ccccc2F)c1 [TT-03225] | < 1000 | < 1000
2 | O=C(NCCCc1cn[nH]c1)c1ccc(N2CCCC2)c(C#Cc2ccccc2)c1 [TT-03230] | < 1000 | < 1000
3 | O=C(NCCCc1cn[nH]c1)c1ccc(N2CCOCC2)c(C#Cc2ccccc2)c1 [TT-03232] | < 1000 | < 1000
4 | O=C(NCCCc1cn[nH]c1)c1ccc(Oc2ccccc2)c(C#Cc2ccccc2)c1 [TT-03233] | < 1000 | < 1000
5 | O=C(NCCCc1cn[nH]c1)c1ccc(-n2cnnc2)c(C#Cc2ccccc2)c1 [TT-03237] | > 20000 | > 20000
6 | CN(C)c1ccc(C(=O)NCCCc2cn[nH]c2)cc1C#Cc1ccccc1 [TT-03242] | < 1000 | < 1000
7 | O=C(NCCCc1cn[nH]c1)c1ccc(-c2cccnc2)c(C#Cc2ccccc2)c1 [TT-03245] | < 1000 | < 1000
8 | O=C(NCCCc1cn[nH]c1)c1ccc(-c2ccncc2)c(C#Cc2ccccc2)c1 [TT-03246] | < 1000 | < 1000
9 | Cc1ccc(C(=O)NCCCc2cn[nH]c2)cc1C#Cc1ccccc1 [TT-03248] | < 1000 | < 1000
10 | CN(C)c1ccc(C(=O)NCCCn2ccnc2)cc1C#Cc1ccccc1 [TT-03252] | < 1000 | < 1000
11 | O=C(NCCCn1ccnc1)c1ccc(-c2ccncc2)c(C#Cc2ccccc2)c1 [TT-03256] | < 1000 | < 1000
12 | O=C(NCCCn1ccnc1)c1ccc(N2CCOCC2)c(C#Cc2ccccc2)c1 [TT-03261] | < 1000 | < 1000
13 | O=C(NCCCn1ccnc1)c1ccc(-n2cccn2)c(C#Cc2cccnc2)c1 [TT-03264] | < 1000 | < 1000
14 | O=C(NCCCc1cn[nH]c1)c1ccc(-n2cccn2)c(C#Cc2cccnc2)c1 [TT-03303] | < 1000 | < 1000
15 | O=C(NCCCc1cn[nH]c1)c1ccc(-n2cccn2)c(C#Cc2ccncc2)c1 [TT-03304] | < 1000 | < 1000
16 | O=C(NCCCn1ccnc1)c1ccc(-n2cccn2)c(C#Cc2ccncc2)c1 [TT-03305] | < 1000 | < 1000
17 | COc1ccc(C#Cc2cc(C(=O)NCCCc3cn[nH]c3)ccc2-n2cccn2)cc1 [TT-03306] | < 1000 | < 1000
18 | COc1cccc(C#Cc2cc(C(=O)NCCCc3cn[nH]c3)ccc2-n2cccn2)c1 [TT-03308] | < 1000 | < 1000
19 | COc1cccc(C#Cc2cc(C(=O)NCCCn3ccnc3)ccc2-n2cccn2)c1 [TT-03309] | < 1000 | < 1000
20 | O=C(NCCCc1cn[nH]c1)c1ccc(-n2cccn2)c(C#Cc2cccc(O)c2)c1 [TT-03311] | < 1000 | < 1000
21 | O=C(NCCCn1ccnc1)c1ccc(-n2cccn2)c(C#Cc2cccc(O)c2)c1 [TT-03312] | < 1000 | < 1000
22 | O=C(NCCCc1cn[nH]c1)c1ccc(-n2cccn2)c(C#Cc2ccccc2Cl)c1 [TT-03321] | < 1000 | < 1000
23 | O=C(NCCCc1cn[nH]c1)c1ccc(-n2cccn2)c(C#Cc2cccc(Cl)c2)c1 [TT-03322] | < 1000 | < 1000

Row | SMILES | IC50 (MV4-11) [nM] | IC50 (U-937) [nM]
24 | O=C(NCCCc1cn[nH]c1)c1ccc(-n2cccn2)c(C#Cc2ccccc2C(F)(F)F)c1 [TT-03323] | < 1000 | < 1000
25 | O=C(NCCCc1cn[nH]c1)c1ccc(-n2cccn2)c(C#Cc2ccc(C(F)(F)F)cc2)c1 [TT-03324] | 1000 to 5000 | 1000 to 5000
26 | Cc1ccccc1C#Cc1cc(C(=O)NCCCc2cn[nH]c2)ccc1-n1cccn1 [TT-03326] | < 1000 | < 1000
27 | Cc1cccc(C#Cc2cc(C(=O)NCCCn3ccnc3)ccc2-n2cccn2)c1 [TT-03327] | < 1000 | < 1000
28 | Cc1cccc(C#Cc2cc(C(=O)NCCCc3cn[nH]c3)ccc2-n2cccn2)c1 [TT-03328] | < 1000 | < 1000
29 | COc1ccccc1C#Cc1cc(C(=O)NCCCc2cn[nH]c2)ccc1-n1cccn1 [TT-03330] | < 1000 | < 1000
30 | O=C(NCCCn1ccnc1)c1ccc(-n2cccn2)c(C#Cc2cccc(C(F)(F)F)c2)c1 [TT-03331] | < 1000 | < 1000
31 | O=C(NCCCc1cn[nH]c1)c1ccc(-n2cccn2)c(C#Cc2cccc(C(F)(F)F)c2)c1 [TT-03332] | < 1000 | < 1000
32 | NCc1ccc(C#Cc2cc(C(=O)NCCCc3cn[nH]c3)ccc2-n2cccn2)cc1 [TT-03334] | < 1000 | < 1000
33 | C#Cc1cc(C(=O)NCCCc2cn[nH]c2)ccc1-n1cccn1 [TT-03337] | 10000 to 20000 | > 20000
34 | CC(C)(O)C#Cc1cc(C(=O)NCCCc2cn[nH]c2)ccc1-n1cccn1 [TT-03346] | 5000 to 10000 | > 20000
35 | O=C(NCCCc1cn[nH]c1)c1ccc(-n2cccn2)c(C#CC2(O)CCCCC2)c1 [TT-03351] | 5000 to 10000 | 5000 to 10000
36 | Nc1cccc(C#Cc2cc(C(=O)NCCCc3cn[nH]c3)ccc2-n2cccn2)n1 [TT-03354] | < 1000 | < 1000
37 | O=C(NCCCc1cn[nH]c1)c1ccc(-n2cccn2)c(C#Cc2ccccn2)c1 [TT-03355] | < 1000 | < 1000
38 | N#Cc1cccc(C#Cc2cc(C(=O)NCCCc3cn[nH]c3)ccc2-n2cccn2)c1 [TT-03357] | < 1000 | < 1000
39 | CNC(=O)c1cccc(C#Cc2cc(C(=O)NCCCc3cn[nH]c3)ccc2-n2cccn2)c1 [TT-03359] | < 1000 | < 1000
40 | CC(C)(C)OC(=O)NCc1ccc(C#Cc2cc(C(=O)NCCCc3cn[nH]c3)ccc2-n2cccn2)cc1 [TT-03364] | 1000 to 5000 | 1000 to 5000
41 | O=C(NCCCc1cn[nH]c1)c1ccc(-n2cccn2)c(C#Cc2ccc(F)cn2)c1 [TT-03569] | < 1000 | < 1000
42 | O=C(NCCCn1ccnc1)c1ccc(-n2cccn2)c(CCc2ccccc2)c1 [TT-03574] | 5000 to 10000 | 5000 to 10000
43 | O=C(NCCCc1cn[nH]c1)c1ccc(-c2ccncc2)c(C#Cc2ccc(F)cc2)c1 [TT-03582] | < 1000 | < 1000
44 | Cn1cc(-c2ccc(C(=O)NCCCc3cn[nH]c3)cc2C#Cc2ccc(F)cc2)cn1 [TT-03585] | < 1000 | < 1000
45 | O=C(NCCCc1cn[nH]c1)c1ccc(N2CCC(O)CC2)c(C#Cc2ccc(F)cc2)c1 [TT-03587] | < 1000 | < 1000
46 | O=C(NCCCc1cn[nH]c1)c1ccc(N2CCCCC2)c(C#Cc2ccc(F)cc2)c1 [TT-03588] | < 1000 | < 1000

Row | SMILES | IC50 (MV4-11) [nM] | IC50 (U-937) [nM]
47 | O=C(NCCCc1cn[nH]c1)c1ccc(N2CCCCCC2)c(C#Cc2ccc(F)cc2)c1 [TT-03589] | < 1000 | < 1000
48 | O=C(NCCCc1cn[nH]c1)c1ccc(N2CCC3(CCCCC3)C2)c(C#Cc2ccc(F)cc2)c1 [TT-03590] | < 1000 | < 1000
49 | O=C(NCCCc1cn[nH]c1)c1ccc(N2CCC(C(F)(F)F)CC2)c(C#Cc2ccc(F)cc2)c1 [TT-03591] | < 1000 | < 1000
50 | O=C(NCCCc1cn[nH]c1)c1ccc(N2CCCCC2CCO)c(C#Cc2ccc(F)cc2)c1 (stereo not shown) [TT-03592] | < 1000 | < 1000
51 | CN(C)CC1(O)CCN(c2ccc(C(=O)NCCCc3cn[nH]c3)cc2C#Cc2ccc(F)cc2)C1 (stereo not shown) [TT-03594] | < 1000 | < 1000
52 | O=C(NCCCc1cn[nH]c1)c1ccc(N2CCCC(CO)C2)c(C#Cc2ccc(F)cc2)c1 (stereo not shown) [TT-03595] | < 1000 | < 1000
53 | CC(C)(C)OC(=O)N1CCN(c2ccc(C(=O)NCCCc3cn[nH]c3)cc2C#Cc2ccc(F)cc2)CC1 [TT-03596] | < 1000 | < 1000
54 | O=C(NCCCc1cn[nH]c1)c1ccc(N2CCNCC2)c(C#Cc2ccc(F)cc2)c1 [TT-03597] | < 1000 | < 1000
55 | CN1CCN(c2ccc(C(=O)NCCCc3cn[nH]c3)cc2C#Cc2ccc(F)cc2)CC1 [TT-03598] | < 1000 | < 1000
56 | CC(=O)N1CCN(c2ccc(C(=O)NCCCc3cn[nH]c3)cc2C#Cc2ccc(F)cc2)CC1 [TT-03599] | < 1000 | < 1000
57 | Cc1nccn1-c1ccc(C(=O)NCCCc2cn[nH]c2)cc1C#Cc1ccc(F)cc1 [TT-03602] | < 1000 | < 1000
58 | O=C(NCCCc1cn[nH]c1)c1ccc(-n2cccn2)c(C#Cc2cccc(N3CCCC3)n2)c1 [TT-03611] | < 1000 | < 1000
59 | O=C(NCCCc1cn[nH]c1)c1ccc(-n2cccn2)c(C#Cc2ccc3nccn3c2)c1 [TT-03620] | < 1000 | < 1000
60 | CN(C)c1cccc(C#Cc2cc(C(=O)NCCCc3cn[nH]c3)ccc2-n2cccn2)n1 [TT-03623] | < 1000 | < 1000
61 | NC(=O)c1cccc(C#Cc2cc(C(=O)NCCCc3cn[nH]c3)ccc2-n2cccn2)c1 [TT-03625] | < 1000 | < 1000
62 | Cc1nn(-c2ccc(C(=O)NCCCc3cn[nH]c3)cc2C#Cc2ccccc2)c(C)c1C [TT-03626] | < 1000 | < 1000
63 | O=C(NCCCc1cn[nH]c1)c1ccc(-n2ccnc2)c(C#Cc2ccc(F)cc2)c1 [TT-03627] | < 1000 | < 1000
64 | Cn1cc(CCCNC(=O)c2ccc(-n3cccn3)c(C#Cc3ccc(F)cc3)c2)cn1 [TT-03630] | < 1000 | < 1000
65 | O=C(NCCCc1cn[nH]c1)c1ccc(N2CCOCC2)c(C#Cc2ccncc2)c1 [TT-03631] | < 1000 | < 1000
66 | O=C(NCCCc1cn[nH]c1)c1ccc(N2CCOCC2)c(C#Cc2ccc(F)cn2)c1 [TT-03633] | < 1000 | < 1000
67 | O=C(NCCCc1cn[nH]c1)c1ccc(-n2cnnc2)c(C#Cc2ccc(F)cc2)c1 [TT-03634] | < 1000 | < 1000
68 | O=C(NCCCc1cn[nH]c1)c1ccc(N2CCOCC2)c(C#Cc2ccc(Cl)nc2)c1 [TT-03655] | < 1000 | < 1000
